In experiment [1] the target is T1, Human Serum Albumin (HSA) (Homo sapiens, UniProt P02768). The experiment can be described thus: c-WaterLOGSY competition binding experiment, displacement of reference compound 6-CH3 Trp from HSA. Further details: purchased Sigma A-3782. As to the method:
(§1) NMR Experiments. […] For each sample a reference spectrum and a ID WaterLOGSY spectrum were recorded. […] The 1st water selective 180° pulse was 25 milliseconds (ms) long. A weak rectangular PFG is applied during the entire length of the mixing time (1.5 seconds (s)). A short gradient recovery time of 2 ms was introduced at the end of the mixing time before the detection pulse. […] The gradient recovery time was 0.2 s. […] Prior to Fourier transformation the data were multiplied with an exponential function with a line broadening of 1 Hz.

Experiment [2] deals with T1, Human Serum Albumin (HSA). Nature of the experiment: biochemical. The note with it: for Interaction with HSA by ITC binding heat effects: 30 μM protein, 1.5 mM ligand. The method, then: FIG. 3. Isothermal titration calorimetry (ITC) data measured on the binding of tryptophan analogues to HSA. […] Dilution heats were collected in blank titrations and were subtracted from the data. […] The solid line represents a calculated curve using the best-fit parameters obtained by a nonlinear least-squares fit to the measured data.
ITC Experiments. […] Heats of dilution were measured in blank titrations by injecting the […] into the buffer used in the particular experiment and were subtracted from the binding heats. Thermodynamic parameters were determined by non-linear least squares methods using routines included in the Origin software package (MicroCal).
(Isothermal titration calorimetry measures the heat released or taken up as one component is titrated into another.)

The target in experiment [3] is T1, Human Serum Albumin (HSA). The experiment can be described thus: One-dimensional WaterLOGSY NMR spectra of methyl-tryptophan derivatives with HSA. Further details: purchased Sigma A-3782. Format: binding. The note with it: 50 μM compound, 5 μM HSA, PBS pH 7.4, 293 K. The method, then:
FIG. 2. […] Positive and negative signals identify HSA binding and noninteracting molecules, respectively.
Diazepam was purchased from Carlo Erba. The NMR samples were in phosphate buffered saline (PBS) buffer (Sigma) pH 7.4. D2O was added to the solutions (8% final concentration) for the lock signal.
as §1
Therefore in an effort to identify a potential reference molecule, three methyl-tryptophan derivatives, namely 5-CH3, 6-CH3, and 7-CH3 Trp, were selected.

The target of experiment [4] is Human Serum Albumin (HSA) site II (Homo sapiens, UniProt P02768). The note with it: literature knowledge; cited from earlier work.

Data on 5 molecules can be found in patent publication US20040072211A1, “Methods for identifying ligands using waterlogsy NMR” (PHARMACIA & UPJOHN COMPANY, priority 2002, published 2004).

Where two headings read alike, the source gives them in different places.

T1 sequence (P02768 25-609): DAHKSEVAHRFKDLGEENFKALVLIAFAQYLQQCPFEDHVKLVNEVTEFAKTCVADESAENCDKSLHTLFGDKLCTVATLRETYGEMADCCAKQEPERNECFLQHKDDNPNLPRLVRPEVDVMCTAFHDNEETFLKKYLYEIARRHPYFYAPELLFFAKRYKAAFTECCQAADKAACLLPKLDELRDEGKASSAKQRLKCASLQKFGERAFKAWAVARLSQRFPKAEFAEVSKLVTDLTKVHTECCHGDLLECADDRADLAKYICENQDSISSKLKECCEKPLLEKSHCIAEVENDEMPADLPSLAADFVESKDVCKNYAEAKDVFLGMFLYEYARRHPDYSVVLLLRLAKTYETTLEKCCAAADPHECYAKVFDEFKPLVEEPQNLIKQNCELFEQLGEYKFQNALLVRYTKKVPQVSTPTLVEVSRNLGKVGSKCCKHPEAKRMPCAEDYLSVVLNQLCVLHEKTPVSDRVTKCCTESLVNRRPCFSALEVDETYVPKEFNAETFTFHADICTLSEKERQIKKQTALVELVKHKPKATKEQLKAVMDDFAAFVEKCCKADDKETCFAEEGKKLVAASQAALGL
Sequence of Human Serum Albumin (HSA) site II (P02768 25-609): as above

With `OC[C@H]1O[C@@](CO)(O[C@H]2O[C@H](CO)[C@@H](O)[C@H](O)[C@H]2O)[C@@H](O)[C@@H]1O` [Sucrose], the “Signal intensity change of the 6-CH3 Trp reference WaterLOGSY signal in presence of the competitor” value in experiment [1] was “No signal intensity change”.
In the case of `Cc1cccc2c(CC(N)C(=O)O)c[nH]c12` (racemic) [7-CH3 Trp, 7-CH3-D,L-Trp], the “Signal intensity change of the 6-CH3 Trp reference WaterLOGSY signal in presence of the competitor” value in experiment [1] (10 μM competitor, 50 μM 6-CH3 D,L Trp, 5 μM HSA) is on record as “No signal intensity change”. Besides, the “Interaction with HSA by ITC binding heat effects” value in experiment [2] (PBS, 298 K) is “No net binding heat effects”. Further, the “Interaction with HSA by sign of WaterLOGSY signal (positive = binding, negative = noninteracting)” value in experiment [3] is on record as “do not interact with the protein”.
As for `Cc1ccc2[nH]cc(CC(N)C(=O)O)c2c1` (racemic) [5-CH3 Trp, 5-CH3-D,L-Trp], the “Interaction with HSA by ITC binding heat effects” value in experiment [2] (PBS, 298 K) was “No net binding heat effects”. In experiment [3], the “Interaction with HSA by sign of WaterLOGSY signal (positive = binding, negative = noninteracting)” value is reported as “do not interact with the protein”.
The term Kd denotes the constant that tells how readily two partners part at equilibrium. For the molecule `Cc1ccc2c(CC(N)C(=O)O)c[nH]c2c1` (racemic) [6-CH3 Trp, 6-CH3-D,L-Trp], in experiment [2], the equilibrium dissociation constant (Kd) was determined as 37 µM and the “association binding constant (KB)” value was 2.7±0.2 10^4 Mol^−1. In experiment [2] (PBS, 298 K), the “Interaction with HSA by ITC binding heat effects” value is on record as “negative binding heats were observed”. In experiment [2] (ITC, 298 K, PBS), the “ΔH^obs” value came out at 1.9 ± 0.1 kcal/mol and the ΔS is reported as 13.79 cal/(mol K). In addition, in experiment [3], the “Interaction with HSA by sign of WaterLOGSY signal (positive = binding, negative = noninteracting)” value was “ligand for HSA”.
Take `N[C@@H](Cc1c[nH]c2ccccc12)C(=O)O` [tryptophan]: the “Binding site on HSA” value in experiment [4] is listed as “binds also on site II of HSA”.
